Source: patent US11078215B2, “Crystalline forms of lorlatinib maleate” (Pfizer Inc., priority 2016, dated 2021)
Counter-ions that a name gives are not always drawn.

How the values were obtained:
[1] = Slurry experiments, thermodynamic stability of anhydrous lorlatinib maleate (Form 1); type: physicochemical
Method: The thermodynamic stability of anhydrous lorlatinib maleate (Form 1) and lorlatinib maleate hydrate (Form 2) was evaluated employing slurry experiments under a range of water activity and temperature conditions. Suspensions of Form 1 were equilibrated for two weeks in acetonitrile/water and methanol/water solvent systems with water activities (Aw) in the range of 0.1 to 0.9, at three different temperatures: 5° C., room temperature and 40° C. After 2 weeks, the solids in equilibrium were isolated and solid form was evaluated by PXRD.
Even a minimal amount of water (Aw=0.1) was sufficient to cause conversion of Form 1 to Form 2.

[2] = Solid-state physical stability of Form 1 API at temperature/% RH, form checked by PXRD; type: physicochemical; conditions: for Solid Form (accelerated stability, PXRD): API
Description: The physical stability of anhydrous lorlatinib maleate (Form 1) API was investigated at a variety of temperatures and percent relative humidities (% RH). […]

[3] = Physical stability of Form 1 in excipient mixtures and tablets at 50° C./75% RH, PXRD; type: physicochemical; conditions: for Output Solid Form: 1 week
Method: Binary and tertiary mixtures of Form 1 with various excipients were stored at 50° C./75% RH and solid form changes were monitored using PXRD.

[4] = Slurry experiments, thermodynamic stability of anhydrous lorlatinib maleate (Form 1); type: physicochemical; conditions: 2 weeks
[5] = Physical stability of Form 1 in excipient mixtures and tablets at 50° C./75% RH, PXRD; type: physicochemical; conditions: 2 weeks
[6] = Physical stability of Form 1 drug product vs. acetic acid solvate drug product
Description: The physical stabilities of Form 1 and lorlatinib acetic acid solvate as drug product were investigated under a variety of conditions.

## C[C@H]1Oc2cc(cnc2N)-c2c(nn(C)c2C#N)CN(C)C(=O)c2ccc(F)cc21 [anhydrous lorlatinib maleate (Form 1), Anhydrous (10R)-7-amino-12-fluoro-2,10,16-trimethyl-15-oxo-10,15,16,17-tetrahydro-2H-8,4-(metheno)pyrazolo[4,3-h][2,5,11]benzoxadiazacyclotetradecine-3-carbonitrile (PF-06463922) Maleate (Form 1)]
[1]; acetonitrile, Aw 0, 5° C., 2 weeks
  Slurry output, solid form by PXRD: Form 1
[1]; acetonitrile, Aw 0, 40° C., 2 weeks
  Slurry output, solid form by PXRD: Form 1
[1]; acetonitrile/water, Aw 0.1, 5° C., 2 weeks
  Slurry output, solid form by PXRD: Form 2
[1]; acetonitrile/water, Aw 0.1, 40° C., 2 weeks
  Slurry output, solid form by PXRD: Form 2
[1]; acetonitrile/water, Aw 0.1, RT, 2 weeks
  Slurry output, solid form by PXRD: Form 2
[1]; acetonitrile/water, Aw 0.3, 5° C., 2 weeks
  Slurry output, solid form by PXRD: Form 2
[1]; acetonitrile/water, Aw 0.3, 40° C., 2 weeks
  Slurry output, solid form by PXRD: Form 2
[1]; acetonitrile/water, Aw 0.3, RT, 2 weeks
  Slurry output, solid form by PXRD: Form 2
[1]; acetonitrile/water, Aw 0.5, 5° C., 2 weeks
  Slurry output, solid form by PXRD: Form 2
[1]; acetonitrile/water, Aw 0.5, 40° C., 2 weeks
  Slurry output, solid form by PXRD: Form 2
[1]; acetonitrile/water, Aw 0.5, RT, 2 weeks
  Slurry output, solid form by PXRD: Form 2
[1]; acetonitrile/water, Aw 0.75, 5° C., 2 weeks
  Slurry output, solid form by PXRD: Form 2
[1]; acetonitrile/water, Aw 0.75, 40° C., 2 weeks
  Slurry output, solid form by PXRD: Form 2
[1]; acetonitrile/water, Aw 0.75, RT, 2 weeks
  Slurry output, solid form by PXRD: Form 2
[1]; acetonitrile/water, Aw 0.9, 5° C., 2 weeks
  Slurry output, solid form by PXRD: Form 2
[1]; acetonitrile/water, Aw 0.9, 40° C., 2 weeks
  Slurry output, solid form by PXRD: Form 2
[1]; acetonitrile/water, Aw 0.9, RT, 2 weeks
  Slurry output, solid form by PXRD: Form 2
[1]; anhydrous conditions (Aw=0)
  Form conversion in slurry (summary): no conversion to the hydrate Form 2 detected
[1]; methanol, Aw 0, 5° C., 2 weeks
  Slurry output, solid form by PXRD: Form 1
[1]; methanol, Aw 0, RT, 2 weeks
  Slurry output, solid form by PXRD: Form 1
[1]; methanol/water, Aw 0.1, 5° C., 2 weeks
  Slurry output, solid form by PXRD: Form 2
[1]; methanol/water, Aw 0.1, 40° C., 2 weeks
  Slurry output, solid form by PXRD: solvate
[1]; methanol/water, Aw 0.1, 40° C., 2 weeks, listed as Form 1
  Slurry output, solid form by PXRD: solvated material
[1]; methanol/water, Aw 0.1, RT, 2 weeks
  Slurry output, solid form by PXRD: Form 2
[1]; methanol/water, Aw 0.3, 5° C., 2 weeks
  Slurry output, solid form by PXRD: Form 2
[1]; methanol/water, Aw 0.3, 40° C., 2 weeks
  Slurry output, solid form by PXRD: solvate
[1]; methanol/water, Aw 0.3, 40° C., 2 weeks, listed as Form 1
  Slurry output, solid form by PXRD: solvated material
[1]; methanol/water, Aw 0.3, RT, 2 weeks
  Slurry output, solid form by PXRD: Form 2
[1]; methanol/water, Aw 0.5, 5° C., 2 weeks
  Slurry output, solid form by PXRD: Form 2
[1]; methanol/water, Aw 0.5, 40° C., 2 weeks
  Slurry output, solid form by PXRD: Form 2
[1]; methanol/water, Aw 0.5, RT, 2 weeks
  Slurry output, solid form by PXRD: Form 2
[1]; methanol/water, Aw 0.75, 5° C., 2 weeks
  Slurry output, solid form by PXRD: Form 2
[1]; methanol/water, Aw 0.75, 40° C., 2 weeks
  Slurry output, solid form by PXRD: Form 2
[1]; methanol/water, Aw 0.75, RT, 2 weeks
  Slurry output, solid form by PXRD: Form 2
[1]; methanol/water, Aw 0.9, 5° C., 2 weeks
  Slurry output, solid form by PXRD: Form 2
[1]; methanol/water, Aw 0.9, 40° C., 2 weeks
  Slurry output, solid form by PXRD: Form 2
[1]; methanol/water, Aw 0.9, RT, 2 weeks
  Slurry output, solid form by PXRD: Form 2
[1]; water activities 0.1 to 0.9, temperatures from 5° C. to 40° C., 2 weeks
  Form conversion in slurry (summary): converts to the thermodynamically more stable lorlatinib maleate hydrate (Form 2)
[2]
  Stability with respect to lorlatinib maleate hydrate (Form 2): meta-stable
[2]; 25° C./60% RH without desiccation, 3 months
  Solid Form (accelerated stability, PXRD): Multiple new PXRD peaks were observed, which were consistent with Form 2
[2]; 40° C./75% RH without desiccation, 3 months
  Solid Form (accelerated stability, PXRD): nearly complete conversion to Form 2
[2]; 75% RH, ambient temperature, 6 months, listed as Form 1
  Solid Form (accelerated stability, PXRD): full conversion to Form 2
[2]; 75% RH, ambient temperature, 6 months, listed as anhydrous lorlatinib maleate Form 1
  Solid Form (accelerated stability, PXRD): Form 2
[2]; 90% RH, ambient temperature, 6 months, listed as Form 1
  Solid Form (accelerated stability, PXRD): full conversion to Form 2
[2]; 90% RH, ambient temperature, 6 months, listed as anhydrous lorlatinib maleate Form 1
  Solid Form (accelerated stability, PXRD): Form 2
[3]; binary mixture with stearic acid
  Output Solid Form: Form 2
[3]; mixtures containing magnesium stearate
  Solid form changes by PXRD (summary): form changes after 2 weeks
[3]; mixtures containing stearic acid
  Solid form changes by PXRD (summary): form changes after 1 week
[3]; tertiary mixture with stearic acid, lactose
  Output Solid Form: Form 2
[3]; tertiary mixture with stearic acid, mannitol
  Output Solid Form: Form 2
[4]; acetonitrile, Aw 0, RT
  Slurry output, solid form by PXRD: Form 1
[4]; methanol, Aw 0, 40° C.
  Slurry output, solid form by PXRD: Form 1
[5]; tablet with DCP, magnesium stearate, Explotab
  Output Solid Form: Form 1
[5]; tablet with DCP, magnesium stearate, Polyplasdone XL
  Output Solid Form: Form 1
[5]; tablet with DCP, stearic acid, Explotab
  Output Solid Form: Form 1
[5]; tablet with DCP, stearic acid, Polyplasdone XL
  Output Solid Form: Form 1
[5]; tablet with mannitol, stearic acid, Polyplasdone XL
  Output Solid Form: Form 1
[6]; drug product formulation
  Physical stability of representative drug product formulation relative to the acetic acid solvate of lorlatinib free base: superior physical stability
[6]; 50° C./75% RH, 2 weeks
  impurity (solid phase impurity), physical stability of drug product: ~10% impurity
[6]; 70° C./10% RH, 3 weeks
  impurity (solid phase impurity), physical stability of drug product: ~10% impurity
[6]; 70° C./40% RH, 2 weeks
  impurity (solid phase impurity), physical stability of drug product: ~10% impurity
[6]; 70° C./75% RH, 1 week
  impurity (solid phase impurity), physical stability of drug product: ~10% impurity
